{"source": "paper PMC11131246", "about": "“Molecular determinants for brain targeting by peptides: a meta-analysis approach with experimental validation” (Fluids and Barriers of the CNS, 2024)", "key": {"HBEC-5i cells": {"test_system": "HBEC-5i cells", "experiment": "Translocation across in vitro BBB model (HBEC-5i monolayer, transwell)", "assay_type": "in vitro ADME, human", "details": "HBEC-5i monolayer on AF-coated PET transwell inserts (1.0 µm pores), 8 days, CF-peptide 5.0 µM in DMEM:F12 without phenol red added to apical side, 24 h, fluorescence, plate reader, mean ± SD, triplicates of three independent experiments", "protocol": "Throughout 8 days, medium was changed every other day. On the day of the experiment, cells were washed twice with 1X PBS (137.0 mM NaCl, 2.7 mM KCl, 10.0 mM Na2HPO4, and 1.8 mM KH2PO4), and once with DMEM:F12 without phenol red. Then, CF-peptides (5.0 μM, in DMEM:F12 without phenol red) were added to the apical side of the in vitro BBB model and incubated for 24 h. Finally, samples from the apical and basolateral side were collected and fluorescence intensity analyzed using a Varioskan^TM LUX multimode microplate reader (Thermo Fisher, Spain). […] Experiments were performed in triplicates on different days using three independently grown cell cultures. Seeking experimental support for our hypothesis, we have synthesized and tested in vitro the activity of ten peptides (Table 1), selected among the 14 BBBpS entries by their lowest S score in an OLS ranking."}, "[1]": {"experiment": "Cytotoxicity, CellTiter-Blue cell viability assay", "assay_type": "cell-based", "details": "human; CellTiter-Blue, peptides 0.05–100.0 µM, 24 h; triplicates, three independent cultures; read-out: Cytotoxicity IC50 HEK-293", "protocol": "(§1) Peptide cytotoxicity was determined using the CellTiter-Blue® cell viability assay, following a described protocol. Briefly, all cell lines were carefully harvested with trypsin–EDTA and seeded 10.000–20.000 cells/100 μL into 96-well clear flat-bottomed polystyrene plates (Corning, USA) for 24 h. After medium removal, cells were washed twice with 1X PBS, and 100 µL of previously diluted peptides (range from 0.05–100.0 µM) in the respective medium were added to cells. Then, after 24 h, cells were washed twice with 1X PBS and 20 µL of CellTiter-Blue® Reagent (diluted in 100 µL of medium) was added to each well and incubated for 3 h in culturing conditions. The fluorescence intensity was measured using Varioskan™ LUX multimode microplate reader.\n(§2) IC50 values were determined using GraphPad Prism 7.0 software using a log(inhibitor) versus normalized response. Experiments were performed in triplicates on different days using three independently grown cell cultures."}, "[2]": {"experiment": "Biodistribution of 67Ga-radiolabeled peptides", "set-up": "species or system mouse", "details": "in vivo, iv, 100 uCi, total radioactivity, i.v. tail vein, mean ± SD, n = 3; for tissue uptake at 1 h: female, CD1, mouse, 1 h post injection", "protocol": "All animal experiments were performed in compliance with national and EU legislation for good practices on laboratory animal science. The animals were housed in a temperature and humidity-controlled environment with a 12 h light/12 h dark schedule. Biodistribution of radiolabeled peptides was performed on 7 weeks old CD1 female mice.\nAnimals were intravenously injected into the tail vein with 100 µL of a 25 µM saline solution of the ^67Ga-peptide with a radioactivity around 100 µCi. The mice were euthanized by cervical dislocation at 2 min and 1 h after injection. The dose administered and the radioactivity in the euthanized animals was measured using a dose calibrator (Carpintec CRC-15W, Ramsey, USA). The difference between the radioactivity in the injected and the euthanized animals was assumed to be due to excretion. Brain and tissues of interest without previous perfusion were dissected, washed, and weighed, and their radioactivity was measured using a γ counter (Hidex AMG, Hidex, Turku, Finland). The uptake in the brain and tissues of interest was calculated and expressed as a percentage of injected radioactivity dose per gram of tissue (% ID/g)."}, "[3]": {"experiment": "Analytical RP-HPLC retention time (used as indication of hydrophobicity)", "assay_type": "physicochemical", "details": "analytical reverse phase HPLC, UV chromatogram; free and CF-labelled peptides"}, "[4]": {"experiment": "Cytotoxicity, CellTiter-Blue cell viability assay", "assay_type": "cell-based", "details": "human; CellTiter-Blue, peptides 0.05–100.0 µM, 24 h; triplicates, three independent cultures; read-out: Cytotoxicity IC50 Hs68", "protocol": "as §1, §2"}, "[5]": {"experiment": "Cytotoxicity, CellTiter-Blue cell viability assay", "assay_type": "cell-based", "details": "human; CellTiter-Blue, peptides 0.05–100.0 µM, 24 h; triplicates, three independent cultures", "protocol": "as §1, §2"}, "[6]": {"experiment": "Cytotoxicity, CellTiter-Blue cell viability assay", "assay_type": "cell-based", "details": "human; read-out: Cytotoxicity IC50 HBEC-5i", "protocol": "as §1, §2"}, "[7]": {"experiment": "Cytotoxicity, CellTiter-Blue cell viability assay", "assay_type": "cell-based", "details": "human; CellTiter-Blue, peptides 0.05–100.0 µM, 24 h; triplicates, three independent cultures; read-out: Cytotoxicity IC50 HeLa", "protocol": "as §1, §2"}}, "note": "Read-outs that look alike come from different tables or passages of the source. Residues, ends and D or L forms follow the SMILES beside them. No end group written: not given here."}
{"compound": "AGILKRW [PepH3, well-tested BBBpS standard, reference compound]", "values": [{"measurement": "Translocation (%) HBEC-5i", "setting": "HBEC-5i cells", "result": "54.0 ± 2.2", "unit": "%"}]}
{"compound": "CC[C@H](C)[C@H](NC(=O)CNC(=O)[C@H](CCCNC(=N)N)NC(=O)[C@H](Cc1ccc(O)cc1)NC(=O)[C@H](CS)NC(=O)[C@@H](NC(=O)[C@H](CCCNC(=N)N)NC(=O)[C@H](Cc1ccccc1)NC(=O)[C@H](CS)NC(=O)[C@H](Cc1c[nH]c2ccccc12)NC(=O)[C@@H](N)CCCCN)C(C)C)C(=O)N[C@@H](CS)C(=O)N[C@@H](Cc1ccc(O)cc1)C(=O)N[C@@H](CCCNC(=N)N)C(=O)N[C@@H](CCCNC(=N)N)C(=O)N[C@@H](CS)C(=O)N[C@@H](CCCNC(=N)N)C(N)=O", "note": "[non-BBBpS_2] (H-KWCFRVCYRGICYRRCR-NH2)", "values": [{"measurement": "IC50 at 24 h", "setting": "[1]", "result": "14.7 ± 1.4", "unit": "µM"}, {"measurement": "tissue uptake at 1 h", "setting": "[2]; brain without perfusion, CD1 female mice, γ counter, read-out: Tissue distribution, Brain (brain uptake)", "result": "0.13 ± 0.03", "unit": "%ID/g"}, {"measurement": "tissue uptake at 1 h", "setting": "[2]; liver, CD1 mice, read-out: Tissue distribution, Liver", "result": "22.8 ± 10.1", "unit": "%ID/g"}, {"measurement": "tissue uptake at 2 min", "setting": "[2]; mouse, brain without perfusion, 2 min post injection, CD1 female mice, 100 µL of 25 µM 67Ga-peptide, γ counter, read-out: Tissue distribution, Brain (brain uptake)", "result": "0.27 ± 0.04", "unit": "%ID/g"}, {"measurement": "HPLC tR", "setting": "[3]", "result": 6.81, "unit": "min"}, {"measurement": "Translocation (%) HBEC-5i", "setting": "HBEC-5i cells", "result": "2.6 ± 1.2", "unit": "%"}, {"measurement": "IC50 at 24 h", "setting": "[4]", "result": "26.4 ± 2.9", "unit": "µM"}, {"measurement": "IC50 at 24 h", "setting": "[5]", "result": "26.9 ± 3", "unit": "µM"}, {"measurement": "IC50 at 24 h", "setting": "[6]", "result": "20.7 ± 1", "unit": "µM"}, {"measurement": "IC50 at 24 h", "setting": "[7]", "result": "39.4 ± 1.8", "unit": "µM"}]}
{"compound": "KKKKQPPKPKKPKTQEKKKKQPPKPKR-NH2 [non-BBBpS_1]", "values": [{"measurement": "IC50 at 24 h", "setting": "[1]", "result": "> 100", "unit": "µM"}, {"measurement": "Translocation (%) HBEC-5i", "setting": "HBEC-5i cells", "result": "20.0 ± 3.5", "unit": "%"}, {"measurement": "IC50 at 24 h", "setting": "[4]", "result": "> 100", "unit": "µM"}, {"measurement": "IC50 at 24 h", "setting": "[5]", "result": "> 100", "unit": "µM"}, {"measurement": "IC50 at 24 h", "setting": "[6]", "result": "> 100", "unit": "µM"}, {"measurement": "IC50 at 24 h", "setting": "[7]", "result": "> 100", "unit": "µM"}]}
{"compound": "EEGRLYMRYYSPTTRRYG-NH2 [BBBpS_3]", "values": [{"measurement": "IC50 at 24 h", "setting": "[1]", "result": "> 100", "unit": "µM"}, {"measurement": "Translocation (%) HBEC-5i", "setting": "HBEC-5i cells", "result": "35.7 ± 3.6", "unit": "%"}, {"measurement": "IC50 at 24 h", "setting": "[4]", "result": "> 100", "unit": "µM"}, {"measurement": "IC50 at 24 h", "setting": "[5]", "result": "> 100", "unit": "µM"}, {"measurement": "IC50 at 24 h", "setting": "[6]", "result": "> 100", "unit": "µM"}, {"measurement": "IC50 at 24 h", "setting": "[7]", "result": "> 100", "unit": "µM"}]}
